# Assay results taken from ChEMBL document CHEMBL5465560, “Selectivity Literature for EUbOPEN Chemogenomic Library” (2024).
# Key:
# [1] = molecular target: Voltage-gated inwardly rectifying potassium channel KCNH3 (Homo sapiens, UniProt Q9ULD8); assay: Selectivity interaction (BET inhibitor selectivity panel (Human FP binding assay)) EUB0000102c KCNH3
# [2] = molecular target: Sodium-dependent noradrenaline transporter (Homo sapiens, UniProt P23975); assay: Selectivity interaction (BET inhibitor selectivity panel (Human SPA binding assay)) EUB0000102c SLC6A2
# [3] = molecular target: Potassium voltage-gated channel subfamily KQT member 1 (Homo sapiens, UniProt P51787); assay: Selectivity interaction (BET inhibitor selectivity panel (Human Blocker ionworks assay)) EUB0000102c KCNQ1
# [4] = molecular target: Substance-K receptor (Homo sapiens) (UniProt P21452); assay: Selectivity interaction (CEREP panel (GPCRs, ion channels, and transporters)) EUB0000102c TACR2; conditions: at 10 µM
# [5] = molecular target: Potassium voltage-gated channel subfamily E member 1 (Homo sapiens, UniProt P15382); assay: Selectivity interaction (BET inhibitor selectivity panel (Human Blocker ionworks assay)) EUB0000102c KCNE1
# [6] = molecular target: 5-hydroxytryptamine receptor 3A (Homo sapiens, UniProt P46098); assay: Selectivity interaction (BET inhibitor selectivity panel (Human antagonist intracellular Ca2+ fluorescence assay)) EUB0000102c HTR3A; format: cell-based
# [7] = molecular target: Voltage-dependent P/Q-type calcium channel subunit alpha-1A (Homo sapiens, UniProt O00555); assay: Selectivity interaction (BET inhibitor selectivity panel (Human blocker intracellular Ca2+ fluorescence assay)) EUB0000102c CACNA1A; format: cell-based
# CREB-binding protein = CREB-binding protein (Homo sapiens, UniProt Q92793); assay: Selectivity interaction (Bromodomain panel (DSF assays, literature)) EUB0000102c CREBBP
# [8] = molecular target: 5-hydroxytryptamine receptor 1A (Homo sapiens, UniProt P08908); assay: Selectivity interaction (BET inhibitor selectivity panel (Human SPA binding assay)) EUB0000102c HTR1A
# [9] = molecular target: CDK18/Cyclin Y (Homo sapiens) (UniProt Q07002+Q8ND76); assay: Selectivity interaction (NanoBRET assay in HEK293T cells) EUB0001631a CDK18; format: cell-based; conditions: HEK-293T, at 10 µM
# [10] = molecular target: CDK10/Cyclin L2 (Homo sapiens) (UniProt Q15131+Q96S94); assay: Selectivity interaction (NanoBRET assay in HEK293T cells) EUB0001631a CDK10; format: cell-based; conditions: HEK-293T, at 10 µM
# [11] = molecular target: Cyclin-dependent kinase 2/cyclin E (Homo sapiens) (UniProt P24864+P24941+O96020); assay: Selectivity interaction (KinaseProfilerTM (Merck Millipore) ) EUB0001631a CDK2; format: protein-complex assay; conditions: at 10 µM
# [12] = molecular target: Cyclin-dependent kinase 14/Cyclin-Y (Homo sapiens) (UniProt O94921+Q8ND76); assay: Selectivity interaction (NanoBRET assay in HEK293T cells) EUB0001631a CDK14; format: cell-based; conditions: HEK-293T, at 10 µM
# [13] = molecular target: CDK15/Cyclin Y (Homo sapiens) (UniProt Q96Q40+Q8ND76); assay: Selectivity interaction (NanoBRET assay in HEK293T cells) EUB0001631a CDK15; format: cell-based; conditions: HEK-293T, at 10 µM
# [14] = molecular target: T1, Cyclin-dependent kinase 5/CDK5 activator 1 (Homo sapiens) (UniProt Q00535+Q15078); assay: Selectivity interaction (KinaseProfilerTM (Merck Millipore) ) EUB0001631a CDK5; format: protein-complex assay; conditions: at 10 µM
# [15] = molecular target: CDK8/Cyclin C (Homo sapiens) (UniProt P49336+P24863); assay: Selectivity interaction (NanoBRET assay in HEK293T cells) EUB0001631a CDK8; format: cell-based; conditions: HEK-293T, at 10 µM
# [16] = molecular target: Mast/stem cell growth factor receptor Kit (Homo sapiens, UniProt P10721); assay: Selectivity interaction (KinaseProfilerTM (Merck Millipore) ) EUB0001631a KIT; conditions: at 10 µM
# [17] = molecular target: CDK11A/Cyclin L2 (Homo sapiens) (UniProt Q9UQ88+Q96S94); assay: Selectivity interaction (NanoBRET assay in HEK293T cells) EUB0001631a CDK11A; format: cell-based; conditions: HEK-293T, at 10 µM
# [18] = molecular target: Cyclin-C/Cyclin-dependent kinase 19 (Homo sapiens) (UniProt Q9BWU1+P24863); assay: Selectivity interaction (NanoBRET assay in HEK293T cells) EUB0001631a CDK19; format: cell-based; conditions: HEK-293T, at 10 µM
# [19] = molecular target: CDK9/Cyclin K (Homo sapiens) (UniProt P50750+O75909); assay: Selectivity interaction (NanoBRET assay in HEK293T cells) EUB0001631a CDK9; format: cell-based; conditions: HEK-293T, at 10 µM
# [20] = molecular target: CDK1/Cyclin E (Homo sapiens) (UniProt P06493+P24864); assay: Selectivity interaction (NanoBRET assay in HEK293T cells) EUB0001631a CDK1; format: cell-based; conditions: HEK-293T, at 10 µM
# [21] = molecular target: Cyclin-dependent kinase 4/cyclin D1 (Homo sapiens) (UniProt P11802+P24385); assay: Selectivity interaction (NanoBRET assay in HEK293T cells) EUB0001631a CDK4; format: cell-based; conditions: HEK-293T, at 10 µM
# [22] = molecular target: CDK11B/Cyclin L2 (Homo sapiens) (UniProt P21127+Q96S94); assay: Selectivity interaction (NanoBRET assay in HEK293T cells) EUB0001631a CDK11B; format: cell-based; conditions: HEK-293T, at 10 µM
# [23] = molecular target: Cyclin-dependent kinase 7 (Homo sapiens, UniProt P50613); assay: Selectivity interaction (NanoBRET assay in HEK293T cells) EUB0001631a CDK7; format: cell-based; conditions: HEK-293T, at 10 µM
# [24] = molecular target: CDK20/Cyclin H (Homo sapiens) (UniProt P51946+Q8IZL9); assay: Selectivity interaction (NanoBRET assay in HEK293T cells) EUB0001631a CDK20; format: cell-based; conditions: HEK-293T, at 10 µM
# [25] = molecular target: T2, Ephrin type-A receptor 1 (Homo sapiens) (UniProt P21709); assay: Selectivity interaction (KinaseProfilerTM (Merck Millipore) ) EUB0001631a EPHA1; conditions: at 10 µM
# T2 sequence (whole entry): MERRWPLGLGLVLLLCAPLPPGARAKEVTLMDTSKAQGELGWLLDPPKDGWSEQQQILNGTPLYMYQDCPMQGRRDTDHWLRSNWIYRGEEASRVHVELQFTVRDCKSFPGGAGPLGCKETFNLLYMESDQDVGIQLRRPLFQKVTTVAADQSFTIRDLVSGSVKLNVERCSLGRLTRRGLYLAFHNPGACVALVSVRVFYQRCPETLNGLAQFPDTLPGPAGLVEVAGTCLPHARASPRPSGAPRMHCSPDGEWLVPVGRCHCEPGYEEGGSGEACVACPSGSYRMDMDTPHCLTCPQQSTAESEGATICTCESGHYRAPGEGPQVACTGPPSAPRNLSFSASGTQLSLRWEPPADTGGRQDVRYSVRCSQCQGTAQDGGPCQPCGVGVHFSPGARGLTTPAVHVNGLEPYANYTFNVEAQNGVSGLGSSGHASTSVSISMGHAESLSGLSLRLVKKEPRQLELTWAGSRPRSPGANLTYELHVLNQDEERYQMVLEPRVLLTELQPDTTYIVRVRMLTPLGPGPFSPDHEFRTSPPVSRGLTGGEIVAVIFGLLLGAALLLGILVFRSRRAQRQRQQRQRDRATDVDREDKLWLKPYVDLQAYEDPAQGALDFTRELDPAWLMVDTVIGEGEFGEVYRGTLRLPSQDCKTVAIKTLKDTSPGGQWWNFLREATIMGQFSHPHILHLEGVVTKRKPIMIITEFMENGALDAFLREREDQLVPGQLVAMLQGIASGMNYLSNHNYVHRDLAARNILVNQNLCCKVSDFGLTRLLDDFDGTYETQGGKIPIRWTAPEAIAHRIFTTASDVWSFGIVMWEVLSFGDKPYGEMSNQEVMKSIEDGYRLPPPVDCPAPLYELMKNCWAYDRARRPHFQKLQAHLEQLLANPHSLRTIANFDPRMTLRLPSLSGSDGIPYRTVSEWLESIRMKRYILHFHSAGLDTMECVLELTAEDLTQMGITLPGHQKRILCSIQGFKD
# [26] = molecular target: CDK3/Cyclin E (Homo sapiens) (UniProt P24864+Q00526); assay: Selectivity interaction (NanoBRET assay in HEK293T cells) EUB0001631a CDK3; format: cell-based; conditions: HEK-293T, at 10 µM
# [27] = molecular target: Cyclin-Y/Cyclin-dependent kinase 16 (Homo sapiens) (UniProt Q00536+Q8ND76); assay: Selectivity interaction (NanoBRET assay in HEK293T cells) EUB0001631a CDK16; format: cell-based; conditions: HEK-293T, at 10 µM
# [28] = molecular target: CDK17/Cyclin-Y (Homo sapiens) (UniProt Q00537+Q8ND76); assay: Selectivity interaction (NanoBRET assay in HEK293T cells) EUB0001631a CDK17; format: cell-based; conditions: HEK-293T, at 10 µM
# [29] = molecular target: Cyclin-dependent kinase 2/cyclin E1 (Homo sapiens) (UniProt P24864+P24941); assay: Selectivity interaction (NanoBRET assay in HEK293T cells) EUB0001631a CDK2; format: cell-based; conditions: HEK-293T, at 10 µM
# [30] = molecular target: High affinity nerve growth factor receptor (Homo sapiens, UniProt P04629); assay: Selectivity interaction (KinaseProfilerTM (Merck Millipore) ) EUB0001631a NTRK1; conditions: at 10 µM
# [31] = molecular target: CDK1/Cyclin E (Homo sapiens) (UniProt P06493+P24864+O96020); assay: Selectivity interaction (KinaseProfilerTM (Merck Millipore) ) EUB0001631a CDK1; format: protein-complex assay; conditions: at 10 µM
# [32] = molecular target: CDK6/cyclin D1 (Homo sapiens) (UniProt P24385+Q00534); assay: Selectivity interaction (NanoBRET assay in HEK293T cells) EUB0001631a CDK6; format: cell-based; conditions: HEK-293T, at 10 µM
# [33] = molecular target: CDK3/cyclin E (Homo sapiens) (UniProt P24864+O96020+Q00526); assay: Selectivity interaction (KinaseProfilerTM (Merck Millipore) ) EUB0001631a CDK3; format: protein-complex assay; conditions: at 10 µM
# [34] = molecular target: T1, Cyclin-dependent kinase 5/CDK5 activator 1 (Homo sapiens); assay: Selectivity interaction (NanoBRET assay in HEK293T cells) EUB0001631a CDK5; format: cell-based; conditions: HEK-293T, at 10 µM
# [35] = molecular target: Glycogen synthase kinase-3 alpha (Homo sapiens, UniProt P49840); assay: Selectivity interaction (KinaseProfilerTM (Merck Millipore) ) EUB0001631a GSK3A; conditions: at 10 µM
# [36] = molecular target: Vascular endothelial growth factor receptor 3 (Homo sapiens, UniProt P35916); assay: Selectivity interaction (KinaseProfilerTM (Merck Millipore) ) EUB0001631a FLT4; conditions: at 10 µM
# [37] = molecular target: Cyclin-dependent kinase 13/Cyclin-K (Homo sapiens) (UniProt Q14004+O75909); assay: Selectivity interaction (NanoBRET assay in HEK293T cells) EUB0001631a CDK13; format: cell-based; conditions: HEK-293T, at 10 µM
# [38] = molecular target: CDK12/Cyclin K (Homo sapiens) (UniProt O75909+Q9NYV4); assay: Selectivity interaction (NanoBRET assay in HEK293T cells) EUB0001631a CDK12; format: cell-based; conditions: HEK-293T, at 10 µM
# [39] = molecular target: Glycogen synthase kinase-3 beta (Homo sapiens, UniProt P49841); assay: Selectivity interaction (KinaseProfilerTM (Merck Millipore) ) EUB0001631a GSK3B; conditions: at 10 µM
# [40] = molecular target: Tyrosine-protein kinase Fyn (Homo sapiens) (UniProt P06241); assay: Selectivity interaction (KinaseProfilerTM (Merck Millipore) ) EUB0001631a FYN; conditions: at 10 µM
# Chain of Tyrosine-protein kinase Fyn (Homo sapiens) (P06241 2-537 limits assumed): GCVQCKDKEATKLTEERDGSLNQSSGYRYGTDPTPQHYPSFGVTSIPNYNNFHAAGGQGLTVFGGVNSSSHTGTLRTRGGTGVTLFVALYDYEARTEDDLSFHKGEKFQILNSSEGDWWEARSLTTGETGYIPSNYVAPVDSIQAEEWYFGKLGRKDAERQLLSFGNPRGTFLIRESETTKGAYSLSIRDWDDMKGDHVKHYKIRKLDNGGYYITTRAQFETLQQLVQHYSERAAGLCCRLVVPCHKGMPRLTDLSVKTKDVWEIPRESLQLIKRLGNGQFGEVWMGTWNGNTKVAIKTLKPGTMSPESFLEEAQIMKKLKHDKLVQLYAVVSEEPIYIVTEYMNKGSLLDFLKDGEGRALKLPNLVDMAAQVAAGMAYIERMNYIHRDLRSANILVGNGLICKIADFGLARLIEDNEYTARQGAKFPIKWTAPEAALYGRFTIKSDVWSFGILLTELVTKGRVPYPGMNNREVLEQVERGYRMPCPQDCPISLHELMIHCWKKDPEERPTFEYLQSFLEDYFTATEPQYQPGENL
# T1 sequence (Q00535 whole entry): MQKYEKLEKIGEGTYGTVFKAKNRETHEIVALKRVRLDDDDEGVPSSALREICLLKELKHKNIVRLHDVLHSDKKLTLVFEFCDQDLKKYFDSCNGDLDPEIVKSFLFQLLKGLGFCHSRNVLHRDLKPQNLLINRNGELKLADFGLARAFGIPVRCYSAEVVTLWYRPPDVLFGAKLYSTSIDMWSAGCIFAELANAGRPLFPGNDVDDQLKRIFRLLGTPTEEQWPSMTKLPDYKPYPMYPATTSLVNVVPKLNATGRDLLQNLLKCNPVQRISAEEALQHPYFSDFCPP
# T1 sequence (Q15078 99-307 partner limits assumed): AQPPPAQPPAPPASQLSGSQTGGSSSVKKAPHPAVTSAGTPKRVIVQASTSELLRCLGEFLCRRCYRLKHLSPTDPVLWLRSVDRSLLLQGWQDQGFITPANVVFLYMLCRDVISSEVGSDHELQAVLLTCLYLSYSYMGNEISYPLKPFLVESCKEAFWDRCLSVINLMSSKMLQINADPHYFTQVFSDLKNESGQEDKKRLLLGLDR
# Chain of Cyclin-dependent kinase 13/Cyclin-K (Homo sapiens) (O75909 whole entry, looked up): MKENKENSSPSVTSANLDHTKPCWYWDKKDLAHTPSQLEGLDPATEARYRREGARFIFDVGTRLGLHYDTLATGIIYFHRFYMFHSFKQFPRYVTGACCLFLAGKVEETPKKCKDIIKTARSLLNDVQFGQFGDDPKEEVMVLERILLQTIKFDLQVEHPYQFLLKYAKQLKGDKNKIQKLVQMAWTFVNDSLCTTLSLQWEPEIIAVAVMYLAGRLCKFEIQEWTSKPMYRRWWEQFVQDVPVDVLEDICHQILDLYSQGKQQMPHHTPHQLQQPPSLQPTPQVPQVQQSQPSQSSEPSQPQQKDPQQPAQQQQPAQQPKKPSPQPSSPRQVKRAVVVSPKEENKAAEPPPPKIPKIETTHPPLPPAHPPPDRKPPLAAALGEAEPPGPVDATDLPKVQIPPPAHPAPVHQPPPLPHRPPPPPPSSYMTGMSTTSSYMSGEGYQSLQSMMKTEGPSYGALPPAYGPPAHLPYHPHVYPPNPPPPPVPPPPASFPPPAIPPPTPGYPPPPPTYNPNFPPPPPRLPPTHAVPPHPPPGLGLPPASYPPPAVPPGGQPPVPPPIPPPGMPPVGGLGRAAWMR
# Chain of Cyclin-dependent kinase 13/Cyclin-K (Homo sapiens) (Q14004 whole entry, looked up): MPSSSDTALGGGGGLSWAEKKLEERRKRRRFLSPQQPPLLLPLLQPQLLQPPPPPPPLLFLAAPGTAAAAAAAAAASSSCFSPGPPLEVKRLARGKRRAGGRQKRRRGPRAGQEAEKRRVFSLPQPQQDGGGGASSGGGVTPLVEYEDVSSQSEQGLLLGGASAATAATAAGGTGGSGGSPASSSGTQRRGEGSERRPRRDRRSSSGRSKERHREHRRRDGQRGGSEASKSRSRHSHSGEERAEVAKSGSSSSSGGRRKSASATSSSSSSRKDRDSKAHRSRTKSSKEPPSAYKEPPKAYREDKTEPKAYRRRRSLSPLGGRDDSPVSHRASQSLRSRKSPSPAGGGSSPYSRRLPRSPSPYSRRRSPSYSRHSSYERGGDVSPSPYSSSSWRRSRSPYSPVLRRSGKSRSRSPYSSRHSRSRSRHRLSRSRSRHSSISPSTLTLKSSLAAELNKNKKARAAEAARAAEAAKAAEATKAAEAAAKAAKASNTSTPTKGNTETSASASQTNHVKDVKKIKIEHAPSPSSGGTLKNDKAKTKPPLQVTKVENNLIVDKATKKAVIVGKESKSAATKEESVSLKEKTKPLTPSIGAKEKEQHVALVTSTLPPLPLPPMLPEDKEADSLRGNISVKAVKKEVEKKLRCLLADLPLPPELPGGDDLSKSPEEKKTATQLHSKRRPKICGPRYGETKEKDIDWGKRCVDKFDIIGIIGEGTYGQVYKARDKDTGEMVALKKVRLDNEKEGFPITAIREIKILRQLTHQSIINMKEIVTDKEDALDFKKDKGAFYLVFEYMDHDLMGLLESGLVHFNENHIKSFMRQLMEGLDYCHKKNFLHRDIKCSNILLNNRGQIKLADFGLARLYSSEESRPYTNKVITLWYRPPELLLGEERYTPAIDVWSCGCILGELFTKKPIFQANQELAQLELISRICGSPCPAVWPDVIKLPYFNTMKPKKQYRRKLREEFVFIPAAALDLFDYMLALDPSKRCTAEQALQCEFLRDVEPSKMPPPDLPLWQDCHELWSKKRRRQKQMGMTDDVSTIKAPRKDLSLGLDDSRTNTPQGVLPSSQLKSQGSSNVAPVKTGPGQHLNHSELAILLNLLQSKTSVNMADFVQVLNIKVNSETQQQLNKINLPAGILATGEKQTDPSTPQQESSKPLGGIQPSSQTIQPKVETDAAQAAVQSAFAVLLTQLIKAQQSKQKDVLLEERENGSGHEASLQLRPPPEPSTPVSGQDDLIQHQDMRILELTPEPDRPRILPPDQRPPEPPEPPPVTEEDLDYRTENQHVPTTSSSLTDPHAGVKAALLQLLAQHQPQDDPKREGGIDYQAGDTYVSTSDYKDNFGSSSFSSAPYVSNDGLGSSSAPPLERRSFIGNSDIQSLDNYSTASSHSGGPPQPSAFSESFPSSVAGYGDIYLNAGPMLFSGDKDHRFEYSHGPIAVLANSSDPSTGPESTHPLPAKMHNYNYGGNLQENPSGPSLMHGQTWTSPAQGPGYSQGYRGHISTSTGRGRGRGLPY
# Chain of CDK12/Cyclin K (Homo sapiens) (O75909 whole entry, looked up): as the sequence (O75909 whole entry, looked up) above
# Chain of CDK12/Cyclin K (Homo sapiens) (Q9NYV4 whole entry, looked up): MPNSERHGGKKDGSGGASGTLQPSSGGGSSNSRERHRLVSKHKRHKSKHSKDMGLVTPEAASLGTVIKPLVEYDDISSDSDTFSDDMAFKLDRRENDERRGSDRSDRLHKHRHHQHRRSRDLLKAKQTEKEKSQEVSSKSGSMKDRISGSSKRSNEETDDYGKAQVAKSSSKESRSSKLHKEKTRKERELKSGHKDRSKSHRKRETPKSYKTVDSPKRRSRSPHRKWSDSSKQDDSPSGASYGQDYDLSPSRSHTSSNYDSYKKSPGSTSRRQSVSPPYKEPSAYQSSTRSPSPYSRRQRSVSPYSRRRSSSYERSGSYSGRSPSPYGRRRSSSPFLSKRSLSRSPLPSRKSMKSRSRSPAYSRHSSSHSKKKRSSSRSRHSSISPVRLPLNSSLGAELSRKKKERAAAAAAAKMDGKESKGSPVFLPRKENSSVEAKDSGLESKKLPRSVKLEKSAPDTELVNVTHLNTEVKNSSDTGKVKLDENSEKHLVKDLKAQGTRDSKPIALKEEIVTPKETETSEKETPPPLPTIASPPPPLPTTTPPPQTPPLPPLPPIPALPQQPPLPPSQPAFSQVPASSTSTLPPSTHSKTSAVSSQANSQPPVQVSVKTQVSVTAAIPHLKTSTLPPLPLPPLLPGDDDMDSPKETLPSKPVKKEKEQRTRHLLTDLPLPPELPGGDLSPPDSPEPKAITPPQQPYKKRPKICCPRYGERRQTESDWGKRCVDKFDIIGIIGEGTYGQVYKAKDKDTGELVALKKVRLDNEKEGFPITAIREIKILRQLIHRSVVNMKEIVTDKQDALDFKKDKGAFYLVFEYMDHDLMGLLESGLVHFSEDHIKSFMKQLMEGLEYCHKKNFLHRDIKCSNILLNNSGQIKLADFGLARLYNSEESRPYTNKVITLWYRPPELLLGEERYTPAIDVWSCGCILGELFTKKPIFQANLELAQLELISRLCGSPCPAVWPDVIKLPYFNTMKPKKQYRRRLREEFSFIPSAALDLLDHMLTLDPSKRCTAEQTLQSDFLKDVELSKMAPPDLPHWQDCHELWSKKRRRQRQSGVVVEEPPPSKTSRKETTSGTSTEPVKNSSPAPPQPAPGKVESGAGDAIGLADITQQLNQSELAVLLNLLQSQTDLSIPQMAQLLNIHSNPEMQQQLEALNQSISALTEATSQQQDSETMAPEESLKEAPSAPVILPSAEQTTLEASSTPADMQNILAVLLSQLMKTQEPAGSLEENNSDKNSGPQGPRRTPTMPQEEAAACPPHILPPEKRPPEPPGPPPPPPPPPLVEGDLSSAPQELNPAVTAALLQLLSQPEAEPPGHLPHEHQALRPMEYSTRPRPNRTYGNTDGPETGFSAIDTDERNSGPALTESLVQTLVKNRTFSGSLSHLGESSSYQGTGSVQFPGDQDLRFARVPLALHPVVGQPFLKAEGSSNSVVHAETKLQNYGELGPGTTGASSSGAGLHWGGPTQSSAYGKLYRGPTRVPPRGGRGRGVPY
# Chain of Cyclin-dependent kinase 7 (P50613 whole entry): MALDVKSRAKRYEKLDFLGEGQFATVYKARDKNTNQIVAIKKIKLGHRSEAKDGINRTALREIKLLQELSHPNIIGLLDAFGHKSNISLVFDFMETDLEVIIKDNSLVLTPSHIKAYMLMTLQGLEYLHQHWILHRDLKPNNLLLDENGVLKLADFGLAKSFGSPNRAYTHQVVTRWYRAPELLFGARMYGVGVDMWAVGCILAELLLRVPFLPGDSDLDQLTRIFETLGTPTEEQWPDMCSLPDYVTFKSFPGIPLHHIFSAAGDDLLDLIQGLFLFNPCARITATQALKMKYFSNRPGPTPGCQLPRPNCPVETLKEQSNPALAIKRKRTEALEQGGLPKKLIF
compound,measurement,setting,value
COc1cc2c(cc1-c1c(C)noc1C)ncc1[nH]c(=O)n([C@H](C)c3ccccn3)c12,IC50,[1],40 µM
same,IC50,[2],> 100 µM
same,IC50,[3],> 25 µM
same,% of inhibition,[4],48%
same,IC50,[5],> 25 µM
same,IC50,[6],> 50 µM
same,IC50,[7],1.26 µM
same,dTM,CREB-binding protein,< 3 K
same,IC50,[8],> 100 µM
COc1cc(F)ccc1-c1ncnc(Nc2cccc(C[S@](C)(=N)=O)c2)n1,% of inhibition,[9],19.9%
same,% of inhibition,[10],6.3%
same,% of control,[11],13%
same,% of inhibition,[12],3%
same,% of inhibition,[13],4.5%
same,% of control,[14],20%
same,% of inhibition,[15],3%
same,% of control,[16],6%
same,% of inhibition,[17],10%
same,% of inhibition,[18],11.1%
same,% of inhibition,[19],97.9%
same,% of inhibition,[20],16.6%
same,% of inhibition,[21],31.5%
same,% of inhibition,[22],7.4%
same,% of inhibition,[23],16.8%
same,% of inhibition,[24],1.3%
same,% of control,[25],20%
same,% of inhibition,[26],48.4%
same,% of inhibition,[27],38.6%
same,% of inhibition,[28],31%
same,% of inhibition,[29],41.7%
same,% of control,[30],20%
same,% of control,[31],14%
same,% of inhibition,[32],64.1%
same,% of control,[33],10%
same,% of inhibition,[34],26.1%
same,% of control,[35],4%
same,% of control,[36],30%
same,% of inhibition,[37],4.8%
same,% of inhibition,[38],8.2%
same,% of control,[39],3%
same,% of control,[40],24%
